According to patent US6022869A, “Aminoheterocyclic compounds with antithrombotic/anticoagulant effect” (Zeneca Limited, priority 1996, dated 2000):

Experiments:
[1] = molecular target: T1, human thrombin (Homo sapiens, UniProt P00734); test: Measurement of Thrombin Inhibition (test b, chromogenic substrate S-2238); format: biochemical; conditions: human thrombin 0.005 Units/ml, S-2238 7 μM
T1 construct: cleaves prothrombin to generate thrombin
Method: b) Measurement of Thrombin Inhibition
The procedure of method a) was repeated except that human thrombin (0.005 Units/ml) and the chromogenic substrate S-2238 (KabiVitum AB, 7 μM) were employed.

[2] = molecular target: human Factor Xa (Homo sapiens, UniProt P00742); test: Measurement of Factor Xa Inhibition (test a, chromogenic substrate S-2765); format: biochemical; conditions: pH 7.5, 37° C., human Factor Xa 0.001 Units/ml
Sequence of human Factor Xa (P00742 235-488 limits assumed): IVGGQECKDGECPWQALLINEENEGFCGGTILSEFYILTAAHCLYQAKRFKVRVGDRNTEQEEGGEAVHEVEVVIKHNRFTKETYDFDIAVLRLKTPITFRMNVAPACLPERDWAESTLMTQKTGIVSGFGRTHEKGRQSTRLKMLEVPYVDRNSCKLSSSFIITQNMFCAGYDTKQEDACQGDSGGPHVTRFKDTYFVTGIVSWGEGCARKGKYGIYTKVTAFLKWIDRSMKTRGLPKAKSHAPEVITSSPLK
Sequence of human Factor Xa (P00742 41-179 partner limits assumed): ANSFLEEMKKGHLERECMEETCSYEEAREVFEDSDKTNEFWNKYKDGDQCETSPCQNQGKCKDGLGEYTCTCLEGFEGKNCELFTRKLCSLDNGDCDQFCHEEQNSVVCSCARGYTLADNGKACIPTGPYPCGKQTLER
Method: a) Measurement of Factor Xa Inhibition
An in vitro assay system was carried out based on the method of Kettner et al., J. Biol. Chem., 1990, 265, 18289-18297, whereby various concentrations of a test compound were dissolved in a pH7.5 buffer containing 0.5% of a polyethylene glycol (PEG 6000) and incubated at 37° C. with human Factor Xa (0.001 Units/ml, 0.3 ml) for 15 minutes. The chromogenic substrate S-2765 (KabiVitum AB, 20 μM) was added and the mixture was incubated at 37° C. for 20 minutes whilst the absorbance at 405 nm was measured. The maximum reaction velocity (Vmax) was determined and compared with that of a control sample containing no test compound. Inhibitor potency was expressed as an IC50 value.

[3] = test system: human, rat or rabbit blood plasma (prothrombin time); test: Measurement of Anticoagulant Activity, prothrombin time (PT) test in vitro (test c); conditions: plasma incubated 10 minutes at 37° C., species not given
Method: c) Measurement of Anticoagulant Activity
An in vitro assay whereby human, rat or rabbit venous blood was collected and added directly to a sodium citrate solution (3.2 g/100 ml, 9 parts blood to 1 part citrate solution). Blood plasma was prepared by centrifugation (1000 g, 15 minutes) and stored at 2-4° C. Conventional prothrombin time (PT) tests were carried out in the presence of various concentrations of a test compound and the concentration of test compound required to double the clotting time, hereinafter referred to as CT2, was determined. In the PT test, the test compound and blood plasma were incubated at 37° C. for 10 minutes. Tissue thromboplastin with calcium (Sigma Limited, Poole, England) was added. Fibrin formation and the time required for a clot to form were determined.

[4] = test system: various animal models of thrombotic disease; conditions: cited from earlier work
[5] = test system: Factor Xa; conditions: known from the literature; cited from earlier work

Molecule | IC50 [1] [nM] | IC50 [2] [nM] | CT2 (PT), concentration of test compound required to double the clotting time [3] [µM] | antithrombotic properties (in words) [4] | Factor Xa inhibition (specificity, in words) [5]
CCSCCNC(=O)C1CN(S(=O)(=O)c2ccc3cc(Br)ccc3c2)CCN1C(=O)C1CCN(c2ccncc2)CC1 (stereo not shown) [Example 1, 4-(6-Bromonaphth-2-ylsulphonyl)-2-[N-(2-(ethylthio)ethyl)carbamoyl]-[1-1-(4-pyridyl)piperidin-4-ylcarbonyl]piperazine] | > 5000 | 4 | 1 | – | –
tick anticoagulant protein (TAP): protein, specific Factor Xa inhibitor which possesses antithrombotic properties (YNRLCIKPRDWIDECDSNEGGERAYFRNGKGGCDSFWICPEDHTGADYYSSYRDCFNACI; UniProt P17726 1-60, looked up) | – | – | – | possess antithrombotic properties | specific Factor Xa inhibitors
antistasin: protein, specific Factor Xa inhibitor which possesses antithrombotic properties (protein, UniProt P15358 18-136, looked up) Antistasin: QGPFGPGCEEAGCPEGSACNIITDRCTCSGVRCRMHCPHGFQRSRYGCEFCKCRLEPMKATCDISECPEGMMCSRLTNKCDCKIDINCRKTCPNGLKRDKLGCEYCECRPKRKLIPRLS | – | – | – | possess antithrombotic properties | specific Factor Xa inhibitors
